Molecules are shown by their SMILES.

T1 sequence (P00742 235-488 limits assumed): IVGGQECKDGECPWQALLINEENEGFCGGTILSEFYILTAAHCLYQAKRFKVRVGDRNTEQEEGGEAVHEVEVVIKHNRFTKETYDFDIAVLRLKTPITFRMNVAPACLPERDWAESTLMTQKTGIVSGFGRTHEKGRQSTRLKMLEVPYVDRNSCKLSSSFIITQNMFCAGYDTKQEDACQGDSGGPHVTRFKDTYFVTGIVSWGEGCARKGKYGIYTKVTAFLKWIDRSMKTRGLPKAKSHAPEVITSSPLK
T1 sequence (P00742 41-179 partner limits assumed): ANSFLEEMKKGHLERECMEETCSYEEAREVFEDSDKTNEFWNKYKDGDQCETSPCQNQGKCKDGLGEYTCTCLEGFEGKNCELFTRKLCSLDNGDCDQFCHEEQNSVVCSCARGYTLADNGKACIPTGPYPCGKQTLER

One assay has as its target T1, human factor Xa (Homo sapiens, UniProt P00742).
T1 construct: 25 μl human factor Xa (Enzyme Research Laboratories, Inc; South Bend, Ind.); purchased Enzyme Research Laboratories, Inc; South Bend, Ind
The assay can be described thus: Factor Xa chromogenic assay (substrate S-2765).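 Further: purified enzyme, compound preincubated with the enzyme for 10 min before substrate addition starts the reaction.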 In kind it is biochemical. As to conditions: inhibition constant for inhibition of factor Xa; IC50 corrected for substrate competition; 25° C., enzyme 0.5 nM, substrate 140 μM; read-out: Ki(FXa).
Broadly, the Ki is a measure of affinity in units of concentration, obtained from inhibition or displacement. Consider `COc1ccc(C(=O)NCCN2CCCCC2)cc1OCCc1ccc(Cl)cc1Cl` [Example 16, 3-[2-(2,4-Dichloro-phenyl)-ethoxy]-4-methoxy-N-(2-piperidin-1-yl-ethyl)-benzamide], for which the Ki was 4220 nM.

For `COc1ccc(C(=O)NCC2CCN(C3CCCCCC3)CC2)cc1OCCc1ccc(Cl)cc1Cl` [Example 57], the Ki came to 6220 nM.

`COc1ccc(C(=O)NCC2CCN(C3CCCC3)CC2)cc1OCCc1ccc(Cl)cc1Cl` [Example 54, N-(1-Cyclopentyl-piperidin-4-ylmethyl)-3-[2-(2,4-dichloro-phenyl)-ethoxy]-4-methoxy-benzamide]: the Ki is 6520 nM.

Consider `COc1ccc(C(=O)NCC2CCN(C3CCCCC3)CC2)cc1OCCc1ccc(Cl)cc1Cl` [Example 56], for which the Ki was found to be 4330 nM.

Regarding `COc1ccc(C(=O)N2CCN(Cc3ccccn3)CC2)cc1OCCc1ccc(Cl)cc1Cl` [Example 2, {3-[2-(2,4-Dichlorophenyl)-ethoxy]-4-methoxy-phenyl}-(4-pyridin-2-ylmethyl-piperazin-1-yl)-methanone], the Ki turned out to be 1540 nM.

For `O=C(c1ccc(CO)c(OCCc2ccc(Cl)cc2Cl)c1)N1CCN(Cc2cc[n+]([O-])cc2)CC1` [Example 18, {3-[2-(2,4-Dichloro-phenyl)-ethoxy]-4-hydroxymethyl-phenyl}-[4-(1-oxy-pyridin-4-ylmethyl)-piperazin-1-yl]-methanone], the Ki worked out at 6200 nM.

Consider `COc1cc(C(=O)NCC2CCN(c3ccncc3)CC2)cc(OCCc2ccc(Cl)cc2)c1Cl` [Example 202, 4-Chloro-3-[2-(4-chloro-phenyl)-ethoxy]-5-methoxy-N-(3,4,5,6-tetrahydro-2H-[1,4′]bipyridinyl-4-ylmethyl)-benzamide], for which the Ki is 25 nM.

In the case of `COc1ccc(C(=O)NCCCN2CCCCC2)cc1OCCc1ccc(Cl)cc1Cl` [Example 15, 3-[2-(2,4-Dichlorophenyl)-ethoxy]-4-methoxy-N-(3-piperidin-1-yl-propyl)-benzamide], the Ki amounted to 2220 nM.

The assay is the same for the next values; noted with them: read-out: Ki(FXa).
Consider `O=C(NCC1CCN(c2ccncc2)CC1)c1cc(OCCc2ccc(Cl)cc2Cl)ccc1Cl` [Example 81], for which the Ki was determined as 241 nM.

As for `O=C(O)c1cc(OCCc2ccc(Cl)cc2Cl)cc(C(=O)NCC2CCN(c3ccncc3)CC2)c1` [Example 226, 5-[2-(2,4-Dichlorophenyl)-ethoxy]-N-(3,4,5,6-tetrahydro-2H-[1,4′]bipyridinyl-4-ylmethyl)-isophthalamic acid], the Ki was 82 nM.

Consider `COc1ccc(C(=O)NCC2CCN(c3ccncc3)CC2)cc1NC(=O)Cc1ccc(Cl)cc1Cl` [Example 100, 3-[2-(2,4-Dichloro-phenyl)-acetylamino]-4-methoxy-N-(3,4,5,6-tetrahydro-2H-[1,4′]bipyridinyl-4-ylmethyl)-benzamide], for which the Ki was 298 nM.

On to `O=C(NCC1CCN(c2ccncc2)CC1)c1cccc(CNCc2ccc(Cl)cc2Cl)c1` [Example 233, 3-[(2,4-Dichloro-benzylamino)-methyl]-N-(3,4,5,6-tetrahydro-2H-[1,4′]bipyridinyl-4-ylmethyl)-benzamide], for which the Ki came to 275 nM.

For `CCN(CC)C(=O)c1cc(OCCc2ccc(Cl)cc2Cl)cc(C(=O)NCC2CCN(c3ccncc3)CC2)c1` [Example 232, 5-[2-(2,4-Dichloro-phenyl)-ethoxy]-N,N-diethyl-N′-(3,4,5,6-tetrahydro-2H-[1,4′]bipyridinyl-4-ylmethyl)-isophthalamide], the Ki came to 192 nM.

For the molecule `O=C(NCC1CCN(c2cc[n+](O)cc2)CC1)c1ccc(Cl)c(OCCc2ccc(Cl)cc2)c1` [Example 231, 4-Chloro-3-[2-(4-chloro-phenyl)-ethoxy]-N-(1′-oxy-3,4,5,6-tetrahydro-2H-[1,4′]bipyridinyl-4-ylmethyl)-benzamide], the Ki came out at 227 nM.

Regarding `O=C(NCC1CCN(c2ccncc2)CC1)c1cccc(S(=O)(=O)Nc2ccc(Cl)cn2)c1` [Example 99, 3-(5-Chloro-pyridin-2-ylsulfamoyl)-N-(3,4,5,6-tetrahydro-2H-[1,4′]bipyridinyl-4-ylmethyl)-benzamide], the Ki was found to be 3710 nM.

With `COc1ccc(C(=O)N2CCN(CCN3CCCC3)CC2)cc1OCCc1ccc(Cl)cc1Cl` [Example 198], the Ki came to 5000 nM.

With `Cc1ccc(C(=O)NCC2CCN(c3ccncc3)CC2)cc1OCc1ccc(Cl)cc1` [Example 239], the Ki turned out to be 3840 nM.

As to `O=C(NCC1CCN(c2ccncc2)CC1)c1ccc(Cl)c(OCCc2ccc(F)cc2Cl)c1` [Example 207], the Ki was 68 nM.

For `COc1ccc(C(=O)NC2CCN(C3CCCCC3)CC2)cc1OCCc1ccc(Cl)cc1Cl` [Example 128, N-(1-Cyclohexyl-piperidin-4-yl)-3-[2-(2,4-dichloro-phenyl)-ethoxy]-4-methoxy-benzamide], the Ki is 40900 nM.

With `COc1ccc(C(=O)NCC2CCN(c3ccncc3)CC2)cc1OCC1(c2ccc(Cl)cc2)CC1` [Example 140], the Ki was found to be 69500 nM.

Take `O=C(NCC1CCN(c2ccncc2)CC1)c1cc(OCCc2ccc(Cl)cc2Cl)c[n+]([O-])c1` [Example 102, 5-[2-(2,4-Dichloro-phenyl)-ethoxy]-1-oxy-N-(3,4,5,6-tetrahydro-2H-[1,4′]bipyridinyl-4-ylmethyl)-nicotinamide]: the Ki worked out at 636 nM.

Turning to `O=C(NCC1CCN(c2cc[n+](O)cc2)CC1)c1ccc(Cl)c(OCCc2ccc(Cl)cc2Cl)c1` [Example 230, 4-Chloro-3-[2-(2,4-dichloro-phenyl)-ethoxy]-N-(1′-oxy-3,4,5,6-tetrahydro-2H-[1,4′]bipyridinyl-4-ylmethyl)-benzamide], the Ki was found to be 649 nM.

As for `O=C(NCC1CCN(c2ccncc2)CC1)c1cc(OCCc2ccc(Cl)cc2Cl)cc(C(=O)NCC2CCN(c3ccncc3)CC2)c1` [Example 227, 5-[2-(2,4-Dichloro-phenyl)-ethoxy]-N,N′-bis-(3,4,5,6-tetrahydro-2H-[1,4′]bipyridinyl-4-ylmethyl)-isophthalamide], the Ki is 58 nM.

For `COc1cc(C(=O)NCC2CCN(c3cc[n+](O)cc3)CC2)cc(OCCc2ccc(Cl)cc2Cl)c1Cl` [Example 228, 4-Chloro-3-[2-(2,4-dichloro-phenyl)-ethoxy]-5-methoxy-N-(1′-oxy-3,4,5,6-tetrahydro-2H-[1,4′]bipyridinyl-4-ylmethyl)-benzamide], the Ki worked out at 220 nM.

With `O=C(c1cc(OCCc2ccc(Cl)cc2Cl)c2c(c1)OCO2)N1CCN(Cc2ccncc2)CC1` [Example 186, {7-[2-(2,4-Dichloro-phenyl)-ethoxy]-benzo[1,3]dioxol-5-yl}-(4-pyridin-4-ylmethyl-piperazin-1-yl)-methanone], the Ki was found to be 401 nM.

Turning to `COc1cc(C(=O)NCC2CCN(c3ccnc(C)c3)CC2)cc(OCCc2ccc(Cl)cc2)c1Cl` [Example 222, 4-Chloro-3-[2-(4-chloro-phenyl)-ethoxy]-5-methoxy-N-(2′-methyl-3,4,5,6-tetrahydro-2H-[1,4′]bipyridinyl-4-ylmethyl)-benzamide], the inhibition constant (Ki) came to 72 nM.

Consider `O=C(c1ccc(Cl)c(OCCc2ccc(Cl)cc2Cl)c1)N1CCN(Cc2ccncc2)CC1` [Example 182, {4-Chloro-3-[2-(2,4-dichloro-phenyl)-ethoxy]-phenyl}-(4-pyridin-4-ylmethyl-piperazin-1-yl)-methanone], for which the Ki is 312 nM.

Consider `COc1cc(C(=O)N2CCN(Cc3ccncc3)CC2)cc(OCCc2ccc(Cl)cc2Cl)c1Cl` [Example 200, {4-Chloro-3-[2-(2,4-dichloro-phenyl)-ethoxy]-5-methoxy-phenyl}-(4-pyridin-4-ylmethyl-piperazin-1-yl)-methanone], for which the Ki was 108 nM.

Turning to `CCOc1cc(C(=O)N2CCN(Cc3ccncc3)CC2)cc(OCCc2ccc(Cl)cc2Cl)c1Br` [Example 180, {4-Bromo-3-[2-(2,4-dichloro-phenyl)-ethoxy]-5-ethoxy-phenyl}-(4-pyridin-4-ylmethyl-piperazin-1-yl)-methanone], the Ki came out at 255 nM.

With `CC(C)Oc1ccc(C(=O)N2CCN(Cc3ccncc3)CC2)cc1OCCc1ccc(Cl)cc1Cl` [Example 184, {3-[2-(2,4-Dichloro-phenyl)-ethoxy]-4-isopropoxy-phenyl}-(4-pyridin-4-ylmethyl-piperazin-1-yl)-methanone], the Ki worked out at 617 nM.

Regarding `COc1ccc(C(=O)NCC2CCN(c3ccncc3)CC2)cc1Oc1nc2ccc(Cl)cc2s1` [Example 94], the Ki came to 760 nM.

Take `Cc1ccc(C(=O)NCC2CCN(c3ccnc(Cl)n3)CC2)cc1OCCc1ccc(Cl)cc1Cl` [Example 172, N-[1-(2-Chloro-pyrimidin-4-yl)-piperidin-4-ylmethyl]-3-[2-(2,4-dichloro-phenyl)-ethoxy]-4-methyl-benzamide]: the Ki came to 6450 nM.

As for `Cc1ccc(C(=O)N2CCN(Cc3ccncc3)CC2)cc1OCCc1ccc(Cl)cc1Cl` [Example 4, {3-[2-(2,4-Dichlorophenyl)-ethoxy]-4-methyl-phenyl}-(4-pyridin-4-ylmethyl-piperazin-1-yl)-methanone], the Ki was determined as 298 nM.

Take `COc1ccc(C(=O)N2CCN(CCCN(C)C)CC2)cc1OCCc1ccc(Cl)cc1Cl` [Example 195]: the Ki amounted to 6740 nM.

Consider `COc1ccc(C(=O)NCC2CCN(c3ccncc3)CC2)cc1OCc1cc(-c2ccc(Cl)s2)on1` [Example 93, 3-[5-(5-Chloro-thiophen-2-yl)-isoxazol-3-ylmethoxy]-4-methoxy-N-(3,4,5,6-tetrahydro-2H-[1,4′]bipyridinyl-4-ylmethyl)-benzamide], for which the Ki came to 188 nM.

Take `COc1cc(C(=O)N2CCN(Cc3ccncc3)CC2)cc(OCCc2ccc(Cl)cc2Cl)c1Br` [Example 19, {4-Bromo-3-[2-(2,4-dichlorophenyl)-ethoxy]-5-methoxyphenyl}-(4-pyridin-4-ylmethyl-piperazin-1-yl)-methanone]: the inhibitory constant (Ki) was found to be 95 nM.

With `O=C(c1ccc(Br)c(OCCc2ccc(Cl)cc2Cl)c1)N1CCN(Cc2ccncc2)CC1` [Example 176, {4-Bromo-3-[2-(2,4-dichloro-phenyl)-ethoxy]-phenyl}-(4-pyridin-4-ylmethyl-piperazin-1-yl)-methanone], the Ki was 365 nM.

(Values after patent US7067665B2, “Oxybenzamide derivatives useful for inhibiting factor Xa or Vlla” (Sanofi-Aventis Deutschland GmbH, priority 2000, dated 2006).)
